Measured values taken from ChEMBL document CHEMBL3045621, “Synthesis and Structure-activity Relationships of Herbicidal Thiophene Sulfonylurea Compounds” (J Pestic Sci, 1997).

What was measured:
[1] = system: Sagittaria pygmaea; assay: Herbicidal activity against Sagittaria pygmaea assessed as dose required to cause sufficient herbicidal activity after 5 to 7 days; assay type: functional
[2] = system: Echinochloa oryzicola; assay: Herbicidal activity against Echinochloa oryzicola assessed as dose required to cause sufficient herbicidal activity; assay type: functional
[3] = system: Oryza sativa; assay: Toxicity in two leaf stage of Oryza sativa var. Nihonbare (rice) assessed as dose required to selectivity to Oryza sativa; assay type: organism-based; conditions: in vivo
[4] = system: Schoenoplectiella juncoides; assay: Herbicidal activity against Schoenoplectiella juncoides assessed as dose required to cause sufficient herbicidal activity after 5 to 7 days; assay type: functional

In the case of `COc1cc(OC)nc(NC(=O)NS(=O)(=O)c2sccc2CSC#N)n1`, the MED [1] is reported as 0.625 g/acre, the MED [2] is reported as 1.25 g/acre and the MED [3] is reported as 0.313 g/acre. For the same molecule, the MED [4] was 1.25 g/acre.
